Reference: US8076295B2, “Peptide amphiphiles having improved solubility and methods of using same” (Nanotope, Inc., priority 2007, dated 2011)
Entries after “also recorded” stand apart in the source; their conditions may differ. Where a SMILES comes first, the peptide text is derived from it. The star is where a group is joined. Palmitoyl = CCCCCCCCCCCCCCCC(=O)*

Key:
Format in all cases: physicochemical
[1] = Gelation kinetics and rheological properties of gels formed in artificial cerebrospinal fluid (rheometer); details: for tan(δ) (loss modulus divided by storage modulus): gel in artificial cerebrospinal fluid
Description: Chemical structures for these molecules are also depicted in FIG. 1. Experiments were performed to examine the gelation kinetics and rheological properties of SEQ ID NO:2 with SEQ ID NO:6. Peptide amphiphile samples were dissolved in water at a concentration of 10 mg/mL.
A Physica, Inc. MCR 300 Molecular Compact Rheometer equipped with a 25 mm plate was used to measure stiffness of gels formed by SEQ ID NO:2 and SEQ ID NO:6 in vitro. Samples were measured at 21° C., 0.5% shear strain, with a frequency (ω) of 10 Hz and a gap between the plates of 0.5 mm. G′ (storage modulus) and […] were measured with respect to time post-gelation.
Tan(δ) (defined as the loss modulus divided by the storage modulus) quantifies the balance between energy loss and energy storage in a material, regardless of viscosity.

[2] = Dissolution in water on pH adjustment with NaOH; details: 5 mg/mL in water, pH adjusted to 7.0-7.5 with NaOH
Description: The lyophilized peptide amphiphile powder was weighed and re-dissolved in USP pharmaceutical grade water at a concentration of 5 mg/mL. The colloidal suspension obtained was agitated in an ultrasonic bath for 30 min.

[3] = Solubility in aqueous ammonium hydroxide buffer; details: for solubility: water containing 0.1 vol % ammonium hydroxide, water containing 0.1% by volume ammonium hydroxide
Description: SEQ ID NO:2 or SEQ ID NO:4 was dissolved at 20 mg/mL in an aqueous solution with sufficient ammoniumhydroxide to obtain a pH of 9. This solution was purified in 5 mL aliquots using an Agilent, Inc. model 1100 preparative HPLC equipped with a Phenomenex, Inc. Gemini® 5 μm C18 column (100×30 mm). An elution gradient of water and acetonitrile (each containing 0.1 vol % ammonium hydroxide buffer) was used, as shown in FIG. 2A. The flow rate was 15 mL/min, and the mobile phase was pre-heated to ca. 45° C. using a Timberline Instruments TL-105 column heater.
While the amino acid sequence change between SEQ ID NO:2 and SEQ ID NO:6 appears at first glance to be relatively minor, it nevertheless confers several important and unexpected consequences. The additional glutamic acid residue increases the aqueous solubility and broadens the type of aqueous buffers in which the molecule is soluble. Absent this modification, the only amino acid side chains that are ionized under physiological conditions in SEQ ID NO:6 form a zwitterion (e.g. Glu-Ile-Lys), which limits the molecule's solubility in most aqueous buffers. […] This change has important implications for the manufacturability and clinical development of the peptide amphiphile, as solubility in an ammonium hydroxide buffer greatly facilitates purification by HPLC.
This seemingly insignificant modification (the deletion of one methylene group from the residue) results in a greater than 20-fold increase in aqueous solubility of the peptide amphiphile in an ammonium hydroxide buffer, greatly facilitating purification by HPLC (see FIG. 2D).

[4] = 21° C., 0.5% shear strain, 10 Hz

tan(δ) (loss modulus divided by storage modulus) [1, 4]	complex shear modulus (G*) compared with SEQ ID NO:6 ([1]; one hour post-gelation, 10 mg/mL solution mixed with equal volume of artificial CSF, 21° C., 0.5% shear strain, 10 Hz)	dissolution of colloidal suspension on pH adjustment [2]	solubility [3]	increase in aqueous solubility relative to SEQ ID NO:6 ([3]; ammonium hydroxide buffer)	Structure (SMILES)	self-assembly / gel formation induced by artificial CSF ([1]; 10 mg/mL in water mixed with equal volume of artificial CSF)	solubility (in words) ([3]; 0.1 vol % ammonium hydroxide aqueous buffer)
significantly lower	an order of magnitude greater	go readily into solution	> 20 mg/mL	–	CCCCCCCCCCCCCCCC(=O)N[C@@H](CO)C(=O)N[C@@H](CC(C)C)C(=O)N[C@@H](CO)C(=O)N[C@@H](CC(C)C)C(=O)N[C@@H](C)C(=O)N[C@@H](C)C(=O)N[C@@H](C)C(=O)N[C@@H](CCC(=O)O)C(=O)N[C@@H](CCC(=O)O)C(=O)N[C@H](C(=O)N[C@@H](CCCCN)C(=O)N[C@H](C(=O)N[C@@H](C)C(=O)N[C@H](C(=O)O)C(C)C)C(C)C)[C@@H](C)CC [SEQ ID NO:2, C16H31O-Ser-Leu-Ser-Leu-Ala-Ala-Ala-Glu-Glu-Ile-Lys-Val-Ala-Val-OH] (Palmitoyl-SLSLAAAEEIKVAV-OH)	resulting in a gel with the desired properties	–
–	–	go readily into solution	> 20 mg/mL	greater than 20 fold	CCCCCCCCCCCCCCCC(=O)N[C@@H](CO)C(=O)N[C@@H](CC(C)C)C(=O)N[C@@H](CO)C(=O)N[C@@H](CC(C)C)C(=O)N[C@@H](C)C(=O)N[C@@H](C)C(=O)N[C@@H](C)C(=O)N[C@@H](CC(=O)O)C(=O)N[C@H](C(=O)N[C@@H](CCCCN)C(=O)N[C@H](C(=O)N[C@@H](C)C(=O)N[C@H](C(=O)O)C(C)C)C(C)C)[C@@H](C)CC [SEQ ID NO:4, C16H31O-Ser-Leu-Ser-Leu-Ala-Ala-Ala-Asp-Ile-Lys-Val-Ala-Val-OH] (Palmitoyl-SLSLAAADIKVAV-OH)	–	–
liquid-like	–	–	< 1 mg/mL	–	CCCCCCCCCCCCCCCC(=O)N[C@@H](CO)C(=O)N[C@@H](CC(C)C)C(=O)N[C@@H](CO)C(=O)N[C@@H](CC(C)C)C(=O)N[C@@H](C)C(=O)N[C@@H](C)C(=O)N[C@@H](C)C(=O)N[C@@H](CCC(=O)O)C(=O)N[C@H](C(=O)N[C@@H](CCCCN)C(=O)N[C@H](C(=O)N[C@@H](C)C(=O)N[C@H](C(=O)O)C(C)C)C(C)C)[C@@H](C)CC [SEQ ID NO:6, C16H31O-Ser-Leu-Ser-Leu-Ala-Ala-Ala-Glu-Ile-Lys-Val-Ala-Val-OH, reference compound] (Palmitoyl-SLSLAAAEIKVAV-OH)	–	relatively low solubility; also recorded: only sparingly soluble
